Laboratory results as given in US12297210B2, “Naphthyridine compounds and uses thereof” (Genentech, Inc., priority 2018, dated 2025).

molecular target: T1, HPK1 (Homo sapiens, UniProt Q92918); test: HPK1 Lantha Binding Assay ("Lanth"); details: 15 nM Tracer222, read-out: HPK1 Ki (nM) L = Lanth
T1 construct: purchased Signalchem M23-11G
T1 sequence (Q92918 1-346 limits assumed): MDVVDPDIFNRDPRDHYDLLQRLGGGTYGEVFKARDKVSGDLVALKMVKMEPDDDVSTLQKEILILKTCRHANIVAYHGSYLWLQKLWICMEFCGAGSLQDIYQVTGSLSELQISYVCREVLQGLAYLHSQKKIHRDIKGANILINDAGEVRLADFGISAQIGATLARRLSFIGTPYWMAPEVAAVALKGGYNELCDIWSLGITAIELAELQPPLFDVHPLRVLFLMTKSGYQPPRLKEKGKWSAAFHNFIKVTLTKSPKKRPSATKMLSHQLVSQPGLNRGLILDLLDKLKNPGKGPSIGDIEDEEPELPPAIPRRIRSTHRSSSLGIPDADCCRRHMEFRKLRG
Method: Example B2: HPK1 Lantha Binding Assay (“Lanth”)
The compounds to be tested were diluted by preparing 12.5 uL/well of 5 mM compound (100×) in columns 2 and 13 and 10 ul/well of DMSO in columns 3-12, 14-23, and wells A1-H1 and I24-P24 of the compound plate using a Bravo liquid handling platform. For the reference compound, the top concentration was 1 mM. To the plate was added 10 ul 2 mM staurosporine in wells J1-P1 and A24-H24. A 11 point 5-fold compound serial dilution was performed using the Bravo liquid handling platform. From the plate were transferred 2.5 ul of the solutions from column 2 and column 13 to the 10 ul of DMSO in columns 3 and 14 & so on. The compound plate was centrifuged at 2500 rpm for 1 min. From the compound plate was transferred 80 nl of the compounds into an assay plate using the Echo liquid handler system. One compound plate makes two assay plates. Each assay plate is sealed and stored in an N2 cabinet.
The following assay concentrations and times were used: 2 nM HPK1, 2 nM Eu-Anti-GST Ab, and 15 nM Tracer222, with 60 min incubation time.
For the binding assay, 4 ul 2×HPK1 and Eu-anti-GST antibody were added to each well of the assay plate using a Multidrop reagent dispenser. The solutions were incubated in a 23 C incubator for 1 h. To each well of the assay plate was added 4 ul 2×Tracer-222 using a Multidrop reagent dispenser. The solutions were again incubated in a 23 C incubator for 1 h. The results of the assay were read using an Envision plate reader with the following parameters: TR_FRET, 340ex/615 and 665em; 100 usec Delay; and 200 usec integration.
Compound Ki was analyzed using Morrison ki fit model in XL-fit • a. fit=(1−((((E+x)+(Ki*(1+(S/Kd))))−(((((E+x)+(Ki*(1+(S/Kd))))^2)−((4*E)*x))^0.5))/(2*E))) • res=(y-fit) • b. Parameters: • E=enzyme concentration • S=Tracer222 concentration, Kd=Tracer222 Kd • All measurements reported using the same units (uM)

Ki	SMILES
3.9 nM	Cc1cc(Nc2cc3cc(-c4cnccc4C)ncc3cn2)nc(N)n1 [Compound 210, 6-methyl-N^4-(6-(4-methylpyridin-3-yl)-2,7-naphthyridin-3-yl)pyrimidine-2,4-diamine]
0.39 nM	Cc1c(-c2cc3cc(Nc4cc5n(n4)CC(=O)N(C(C)C)CC5)ncc3cn2)cnc2c1NCCO2 [Compound 103, 6-isopropyl-2-((6-(8-methyl-2,3-dihydro-1H-pyrido[2,3-b][1,4]oxazin-7-yl)-2,7-naphthyridin-3-yl)amino)-5,6-dihydro-4H-pyrazolo[1,5-d][1,4]diazepin-7(8H)-one]
11 nM	CNS(=O)(=O)c1ccc(Nc2cc3cc(-c4cnccc4C)ncc3cn2)nc1 [Compound 207, N-methyl-6-((6-(4-methylpyridin-3-yl)-2,7-naphthyridin-3-yl)amino)pyridine-3-sulfonamide]
28 nM	Cc1ccncc1-c1cc2cc(Nc3ccc(CCO)cn3)ncc2cn1 [Compound 208, 2-(6-((6-(4-methylpyridin-3-yl)-2,7-naphthyridin-3-yl)amino)pyridin-3-yl)ethan-1-ol]
24 nM	Cc1ccncc1-c1cc2cc(Nc3ccc(C(=O)N(C)C)cn3)ncc2cn1 [Compound 204, N,N-dimethyl-6-((6-(4-methylpyridin-3-yl)-2,7-naphthyridin-3-yl)amino)nicotinamide]

molecular target: T2, HPK full length, T165E S171E (Homo sapiens, UniProt Q92918, S171E/T165E); test: HPK1-FL HTRF Enzymatic Assay ("HTRF"); type: biochemical; details: ATP 1 mM, read-out: HPK1 Ki (nM) H = HTRF
T2 construct: HPK full length, T165E S171E: 0.125 nM
T2 sequence (Q92918 whole entry T165E/S171E): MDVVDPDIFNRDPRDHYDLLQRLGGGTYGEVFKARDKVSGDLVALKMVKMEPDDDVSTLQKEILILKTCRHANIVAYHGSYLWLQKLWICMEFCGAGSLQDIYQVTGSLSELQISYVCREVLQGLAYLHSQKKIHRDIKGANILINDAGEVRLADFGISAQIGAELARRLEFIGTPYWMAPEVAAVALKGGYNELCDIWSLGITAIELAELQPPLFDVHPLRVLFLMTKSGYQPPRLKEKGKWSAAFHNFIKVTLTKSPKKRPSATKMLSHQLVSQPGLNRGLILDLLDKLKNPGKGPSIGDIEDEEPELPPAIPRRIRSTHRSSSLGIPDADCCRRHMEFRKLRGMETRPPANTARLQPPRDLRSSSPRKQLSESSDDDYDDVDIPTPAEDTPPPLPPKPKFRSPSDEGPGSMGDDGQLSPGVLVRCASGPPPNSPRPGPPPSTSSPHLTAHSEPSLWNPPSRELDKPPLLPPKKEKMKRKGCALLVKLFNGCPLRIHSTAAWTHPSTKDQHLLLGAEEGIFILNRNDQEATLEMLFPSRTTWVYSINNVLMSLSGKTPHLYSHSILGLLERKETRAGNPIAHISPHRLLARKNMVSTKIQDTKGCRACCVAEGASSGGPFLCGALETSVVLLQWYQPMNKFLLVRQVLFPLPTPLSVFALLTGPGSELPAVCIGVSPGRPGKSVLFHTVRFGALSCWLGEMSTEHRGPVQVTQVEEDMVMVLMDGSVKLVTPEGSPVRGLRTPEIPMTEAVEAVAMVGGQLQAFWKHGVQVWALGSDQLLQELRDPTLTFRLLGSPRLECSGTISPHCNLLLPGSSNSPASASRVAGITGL
Method: Example B1: HPK1-FL HTRF Enzymatic Assay (“HTRF”)
HPK-FL enzyme phosphorylates Biotin-SLP-76 substrate in the presence of ATP at 1 mM and varying concentrations of test compound. Product is detected by FRET using Eu-anti-pSLP76 Ab and SA-XL665. Also see www.cisbio.com/HTRF for additional HTRF technology information.
• Echo555 compound dispenser • Agilent Bravo • Perkin Elmer Envision Final Assay Conditions: • HPK full length, T165E S171E: 0.125 nM • Biotin-SLP76: 100 nM • ATP: 1 mM (ATP Km=20 μM) • Eu-anti-pSLP76: 2 nM • SA-XL665: 8.3 nM • Preincubation time: 30 min • Kinase reaction time: 60 min • Temperature: ambient • Total volume: 12 μl • ATP^app Km: 17.7 μM Materials: • Assay plate: White ProxiPlate 384 F (PerkinElmer cat #6008289) • Kinase: HPK full length double mutant • Substrate: Biotin-SLP76 • ATP: 100 mM ATP • BSG: 2% BSG • DMSO: DMSO(Sigma cat #34869-100ML) • Reaction Buffer: H2O/50 mM HEPES, pH 7.5/10 mM MgCl2/2 mM TCEP/0.01% Brij-35/0.01% BSG • Detection mix: Eu-anti-pSLP76/SA-XL665 (Cisbio, #610SAXAC) Assay Procedure Ki Determination:
To a 384 well Proxiplate with 80 nL compound or DMSO spotted on was added 4 μl/well kinase mix. The mixture was preincubated for 30 minutes and then 4 μl/well substrate mix was added. The solution was incubated for 60 min and then 4 μl/well detection mix was added. The solution was incubated for another 60 min. The plates were then loaded onto a Perkin Elmer Envision and the TR-FRET signal was measured at 615 and 665 nm. A ratio of […] was used to calculate the % activity at each concentration of compound.

Ki	SMILES
> 2000 nM	Cc1cc(Nc2cc3cc(C4CC4)ncc3cn2)ncn1 [Compound 209, 6-cyclopropyl-N-(6-methylpyrimidin-4-yl)-2,7-naphthyridin-3-amine]
4 nM	Cc1c(N)cncc1-c1cc2cc(Nc3cc4n(n3)CC(=O)N(CC(F)F)CC4)ncc2cn1 [Compound 102, 2-((6-(5-amino-4-methylpyridin-3-yl)-2,7-naphthyridin-3-yl)amino)-6-(2,2-difluoroethyl)-5,6-dihydro-4H-pyrazolo[1,5-d][1,4]diazepin-7(8H)-one]
291 nM	Cc1ccncc1-c1cc2cc(Nc3ccc(S(C)(=O)=O)cn3)ncc2cn1 [Compound 202, 6-(4-methylpyridin-3-yl)-N-(5-(methylsulfonyl)pyridin-2-yl)-2,7-naphthyridin-3-amine]
463 nM	Cc1ccncc1-c1cc2cc(Nc3cc(C(=O)N(C)C)c(N)cn3)ncc2cn1 [Compound 201, 5-amino-N,N-dimethyl-2-((6-(4-methylpyridin-3-yl)-2,7-naphthyridin-3-yl)amino)isonicotinamide]
577 nM	Cc1ccncc1-c1cc2cc(Nc3ccc(CO)cn3)ncc2cn1 [Compound 206, (6-((6-(4-methylpyridin-3-yl)-2,7-naphthyridin-3-yl)amino)pyridin-3-yl)methanol]
2.3 nM	Cc1c(N)cncc1-c1cc2cc(Nc3cc4n(n3)CC(=O)N(C(C)C)CC4)ncc2cn1 [Compound 104, 2-((6-(5-amino-4-methylpyridin-3-yl)-2,7-naphthyridin-3-yl)amino)-6-isopropyl-5,6-dihydro-4H-pyrazolo[1,5-d][1,4]diazepin-7(8H)-one]

The next lines start with the compound.

SMILES	Ki
Cc1c(-c2cc3cc(Nc4cc5n(n4)CC(=O)N(C)CC54CC4)ncc3c(C)n2)cnc2c1NCCO2 [Compound 109, 6′-methyl-2′-((8-methyl-6-(8-methyl-2,3-dihydro-1H-pyrido[2,3-b][1,4]oxazin-7-yl)-2,7-naphthyridin-3-yl)amino)-5′,6′-dihydrospiro[cyclopropane-1,4′-pyrazolo[1,5-d][1,4]diazepin]-7′(8′H)-one]	0.03 nM
Cc1c(N)cncc1-c1cc2cc(Nc3cc4n(n3)Cc3nccn3CC4)ncc2c(C)n1 [Compound 105, N-(6-(5-amino-4-methylpyridin-3-yl)-8-methyl-2,7-naphthyridin-3-yl)-5,6-dihydro-11H-imidazo[1,2-a]pyrazolo[1,5-d][1,4]diazepin-8-amine]	0.85 nM
COc1nc(-c2cnc3c(c2C)NCCO3)cc2cc(Nc3cc4n(n3)CC(=O)N(C)CC4)ncc12 [Compound 107, 2-((8-methoxy-6-(8-methyl-2,3-dihydro-1H-pyrido[2,3-b][1,4]oxazin-7-yl)-2,7-naphthyridin-3-yl)amino)-6-methyl-5,6-dihydro-4H-pyrazolo[1,5-d][1,4]diazepin-7(8H)-one]	2.1 nM
Cc1c(N)cncc1-c1cc2cc(Nc3cc4n(n3)CC(=O)N(C(C)C)CC4)ncc2c(C)n1 [Compound 106, 2-((6-(5-amino-4-methylpyridin-3-yl)-8-methyl-2,7-naphthyridin-3-yl)amino)-6-isopropyl-5,6-dihydro-4H-pyrazolo[1,5-d][1,4]diazepin-7(8H)-one]	2.5 nM
CNCc1cc(C)c(-c2cc3cc(Nc4cc5n(n4)CC(=O)N(C)CC5)ncc3cn2)c(F)c1 [Compound 110, 2-((6-(2-fluoro-6-methyl-4-((methylamino)methyl)phenyl)-2,7-naphthyridin-3-yl)amino)-6-methyl-5,6-dihydro-4H-pyrazolo[1,5-d][1,4]diazepin-7(8H)-one]	13 nM
Cc1c(-c2cc3cc(Nc4cc5n(n4)CC(=O)N(C)CC5)ncc3c(C)n2)cnc2c1NCCO2 [Compound 108, 6-methyl-2-((8-methyl-6-(8-methyl-2,3-dihydro-1H-pyrido[2,3-b][1,4]oxazin-7-yl)-2,7-naphthyridin-3-yl)amino)-5,6-dihydro-4H-pyrazolo[1,5-d][1,4]diazepin-7(8H)-one]	0.66 nM
